Experimental data taken from publication PMC6429356, “Development of Anthraquinone Analogues as Phosphoglycerate Mutase 1 Inhibitors” (Molecules, 2019).
Entries after “also recorded” stand apart in the source; their conditions may differ. Like-named read-outs stand apart in the source and are kept apart here.

Experiments:
Solubility = format: physicochemical; conditions: remark in text, no method given
[1] = test system: enolase-pyruvate kinase-LDH; experiment: Counter screening: control linked enzyme assay with 2PG; format: biochemical; conditions: 0.5 μM compound, pyruvate kinase M2, LDH without PGAM1, mean ± s.d. (n = 2)
Protocol: (§1) Firstly, 1 μL inhibitor in dimethyl sulfoxide (DMSO) incubated with 49 μL 4.6 nM recombinant PGAM1, then 50 μL enzyme mix containing 3 units/mL enolase (Sigma-Aldrich, Saint Louis, MO, USA), 3 units/mL recombinant pyruvate kinase M2 (Sigma-Aldrich), 0.6 units/mL recombinant lactatdehydrogenase (LDH, Sigma-Aldrich), 100 mM Tris-HCl, 100 mM KCl, 5 mM MgCl2, 1 mM adenosine diphosphate (ADP), 0.2 mM the reduced form of nicotinamide adenine dinucleotide (NADH) and 4 mM 3PG was added. PGAM1 activity was measured as the decrease in OD at 340 nm. In addition, we performed a counter screening in which 4mM 2PG was added to 50 μL reaction mix containing the indicated inhibitor, 3 units/mL enolase (Sigma-Aldrich), 3 units/mL recombinant pyruvate kinase M2 (Sigma-Aldrich), 0.6 units/mL recombinant LDH (Sigma-Aldrich), 100 mM Tris-HCl, 100 mM KCl, 5 mM MgCl2, 1 mM ADP and 0.2 mM NADH. The other three enzyme activity was measured as the decrease in OD at 340 nm.

[2] = test system: PGAM1 mutations (F22A, R116H and R191H); experiment: Inhibition of PGAM1 mutants compared with wild type; format: biochemical; conditions: 5 μM compound
From the text: To further understand the molecular mechanism of the anthraquinone derivatives interacting with PGAM1, we determined the X-ray structure of PGAM1 in complex with compound 9i at resolution of 1.98 Å (Table 5). Compound 9i occupied a novel allosteric site adjacent to substrate binding site with nice electron density (Figure 3A,B). The allosteric pocket was surrounded by the residues of F22, R90, K100, R116 and R191. In detail, the anthraquinone scaffold and sulfonamide of compound 9i interacted with the main chain carbonyl of K100 through water bridges (Figure 3C). In addition, a hydrophobic interaction was observed between F22 and chlorine-substituted phenyl ring of compound 9i (Figure 3C). […]
Firstly, 1 μL inhibitor in dimethyl sulfoxide (DMSO) incubated with 49 μL 4.6 nM recombinant PGAM1, then 50 μL enzyme mix containing 3 units/mL enolase (Sigma-Aldrich, Saint Louis, MO, USA), 3 units/mL recombinant pyruvate kinase M2 (Sigma-Aldrich), 0.6 units/mL recombinant lactatdehydrogenase (LDH, Sigma-Aldrich), 100 mM Tris-HCl, 100 mM KCl, 5 mM MgCl2, 1 mM adenosine diphosphate (ADP), 0.2 mM the reduced form of nicotinamide adenine dinucleotide (NADH) and 4 mM 3PG was added. PGAM1 activity was measured as the decrease in OD at 340 nm. […] The other three enzyme activity was measured as the decrease in OD at 340 nm. […]

PGAM1 [3] = molecular target: T1, PGAM1 (Homo sapiens, UniProt P18669); experiment: PGAM1 enzymatic assay (enolase-pyruvate kinase-LDH coupled, OD 340 nm); format: biochemical; conditions: optimized enzymatic assay; mean ± s.d. (n = 3)
T1 construct: His6 (C); made in house
T1 sequence (P18669 whole entry): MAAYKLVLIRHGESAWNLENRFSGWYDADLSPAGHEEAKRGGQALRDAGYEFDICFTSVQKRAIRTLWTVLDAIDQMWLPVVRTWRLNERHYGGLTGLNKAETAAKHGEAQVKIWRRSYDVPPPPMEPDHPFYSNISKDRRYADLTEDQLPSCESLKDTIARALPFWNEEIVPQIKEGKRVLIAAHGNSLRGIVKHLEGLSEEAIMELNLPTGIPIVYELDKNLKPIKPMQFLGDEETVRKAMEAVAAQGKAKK
Protocol: as §1

H1299 cells = experiment: Cell viability assay (MTT, 72 h), H1299; format: cell-based; conditions: Homo sapiens, NCI-H1299, proliferation, mean ± s.d. (n = 3)
Protocol: (§2) The H1299 cell line was obtained from Guangzhou Jenniobio Biotechnology Co., Ltd. (Guangzhou, China), PC9 and A549 cells were gifted from Deng Jiong’s lab in the School of Medicine, Shanghai Jiao Tong University, Shanghai, China). H1299, PC9 cells were cultured in RPMI-1640 medium and A549 cells were cultured in F-12K medium containing 10% fetal bovine serum (FBS), 100 units/mL of Penicillin and 100 μg/mL Streptomycin. In cell viability assays, 2000 H1299 cells, A549 cells or 1000 PC9 cells per well were seeded in 96-well plate. After attachment for 24 h, the cells were treated with indicated inhibitor for 72 h. After incubation with 0.5 mg/mL methylthiazolyldiphenyl-tetrazolium bromide (MTT) for 4 h, cell viability was measured as the OD at 570 nm.

PC9 cells = experiment: Cell viability assay (MTT, 72 h), PC9; format: cell-based; conditions: Homo sapiens, PC-9, proliferation, mean ± s.d. (n = 3)
Protocol: as §2

A549 cells = experiment: Cell viability assay (MTT, 72 h), A549; format: cell-based; conditions: Homo sapiens, proliferation, mean ± s.d. (n = 3)
Protocol: as §2

PGAM1 [4] = molecular target: T1, PGAM1; experiment: Substrate competitive assay with 3PG; format: biochemical
PGAM1 [5] = molecular target: T1, PGAM1; set-up: method as in PMID 16200062, PMID 28611670, PMID 23153533, PMID 29530347; conditions: Figure 1; read-out: PGAM1 IC50 (reported inhibitors); cited from earlier work
MDA-MB-231 cells = test system: MDA-MB-231 cells; set-up: method as in PMID 16200062; conditions: Figure 1; read-out: MDA-MB-231 cells IC50 (reported inhibitor); cited from earlier work

Solubility (Solubility) | Inhibition in the Control Linked Enzyme Assay (0.5 μM) [1] [%] | IC50 (PGAM1 [3]) [µM] | IC50 (H1299 cells) [µM] | IC50 (PC9 cells) [µM] | IC50 (A549 cells) [µM] | SMILES | Inhibition of PGAM1 mutations versus wild type [2] | Mode of inhibition with respect to substrate 3PG (PGAM1 [4]) | IC50 (PGAM1 [5]) [µM] | IC50 (MDA-MB-231 cells) [µM]
good solubility | −6.4 ± 5.0 | 0.27 ± 0.04 | 6.9 ± 1.2 | 13.8 ± 1 | 12.7 ± 2.7 | O=C1c2ccccc2C(=O)c2c1cc(NS(=O)(=O)c1ccc(Cl)cc1)c(O)c2O [Compound 9i, 4-Chloro-N-(3,4-dihydroxy-9,10-dioxo-9,10-dihydroanthracen-2-yl) benzenesulfonamide] | failed to inhibit mutations of PGAM1 (F22A, R116H and R191H) as effectively as the wild type | noncompetitive inhibitor; also recorded: non-competitive; also recorded: noncompetitive binding |  | 
 |  |  |  |  |  | C#CCCCC(=O)OC(C)(C)C1CCC2(CO2)C(OC(=O)NC(Cc2c[nH]c3ccccc23)C(=O)OCc2ccccc2)C1 (stereo not shown) [MJE3] |  |  | 33 | 19
